Patent publication US10851064B2, “ACSS2 inhibitors and methods of use thereof” (METABOMED LTD., priority 2017, dated 2020)

Target: T1, ACSS2 (Homo sapiens, UniProt Q9NR19)
Experiment: biochemical
Procedure: ACSS2 Cell-Free Activity Assay (Cell-Free IC50)
The assay is based on a coupling reaction with Pyrophosphatase: ACSS2 is converting ATP+CoA+Acetate=>AMP+pyrophosphate+Acetyl-CoA (Ac-CoA). Pyrophosphatase converts pyrophosphate, a product of the ACSS2 reaction, to phosphate which can be detected by measuring the absorbance at 620 nm after incubation with the Biomol green reagent (Enzo life Science, BML-AK111).
Cell-free IC50 Determination:
At the end of the reaction, Biomol Green was added for 30 minutes at RT and the activity was measured by reading the absorbance at 620 nm.

T1 sequence (Q9NR19 whole entry): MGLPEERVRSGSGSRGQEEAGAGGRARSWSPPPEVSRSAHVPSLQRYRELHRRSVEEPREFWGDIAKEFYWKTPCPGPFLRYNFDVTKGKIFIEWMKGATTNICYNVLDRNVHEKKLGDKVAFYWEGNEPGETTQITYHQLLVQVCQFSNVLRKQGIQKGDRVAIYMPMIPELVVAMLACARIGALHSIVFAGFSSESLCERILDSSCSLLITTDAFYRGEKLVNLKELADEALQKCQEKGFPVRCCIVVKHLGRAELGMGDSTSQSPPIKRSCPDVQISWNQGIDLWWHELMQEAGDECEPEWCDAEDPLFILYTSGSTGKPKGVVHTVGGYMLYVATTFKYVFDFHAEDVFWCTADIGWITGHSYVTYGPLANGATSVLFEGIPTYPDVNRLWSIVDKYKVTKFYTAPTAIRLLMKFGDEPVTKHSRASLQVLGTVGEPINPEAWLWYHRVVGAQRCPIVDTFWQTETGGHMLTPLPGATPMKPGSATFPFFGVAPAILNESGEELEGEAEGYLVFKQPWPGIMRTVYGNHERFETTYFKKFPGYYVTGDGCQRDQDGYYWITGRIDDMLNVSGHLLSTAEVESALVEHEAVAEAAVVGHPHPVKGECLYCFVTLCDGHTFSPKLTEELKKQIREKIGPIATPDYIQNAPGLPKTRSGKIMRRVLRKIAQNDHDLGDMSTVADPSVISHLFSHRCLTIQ

Row | SMILES | IC50
1 | COc1ccc(N2N=C(C)C(C(=O)Nc3cccc(C(C)(F)F)c3)C2=O)cc1OC (stereo not drawn) [compound 287] | 0.01 to 6 nM
2 | CC1=NN(c2cccc(-c3nnc(C)o3)c2)C(=O)C1C(=O)Nc1cccc(C(C)(F)F)c1 (stereo not drawn) [compound 280] | 0.01 to 6 nM
3 | COc1ccc(N2N=C(C)C(C(=O)Nc3cccc(-c4ccco4)c3)C2=O)cc1 (stereo not drawn) [compound 266] | 0.01 to 6 nM
4 | COc1ccc(N2N=C(C)C(C(=O)Nc3cccc(-c4cnccn4)c3)C2=O)cn1 (stereo not drawn) [compound 243] | 0.01 to 6 nM
5 | CC1=NN(c2ccc(-c3nnn[nH]3)cc2)C(=O)C1C(=O)Nc1cccc(C(C)(F)F)c1 (stereo not drawn) [compound 297] | 0.01 to 6 nM
6 | CC1=NN(c2ccc(OC(F)(F)F)c(-c3ncco3)c2)C(=O)C1C(=O)Nc1cccc(-c2ccco2)c1 (stereo not drawn) [compound 292] | 0.01 to 6 nM
7 | CC1=NN(c2cccc(C(=O)OC(C)C)c2)C(=O)C1C(=O)Nc1cccc(-c2ccco2)c1 (stereo not drawn) [compound 237] | 6 to 100 nM
8 | COc1ccc(N2N=C(C)C(C(=O)Nc3cccc(C(C)(F)F)c3)C2=O)nc1 (stereo not drawn) [compound 304] | 0.01 to 6 nM
9 | COc1ccc(N2N=C(C)C(C(=O)Nc3cccc(C(C)(F)F)c3)C2=O)cn1 (stereo not drawn) [compound 242] | 0.01 to 6 nM
10 | CC1=NN(c2ccc(C(F)(F)F)cc2)C(=O)C1C(=O)Nc1cccc(C(C)(F)F)c1 (stereo not drawn) [compound 264] | 0.01 to 6 nM
11 | CC1=NN(c2cccc(S(=O)(=O)N(C)C)c2)C(=O)C1C(=O)Nc1cccc(-c2ccco2)c1 (stereo not drawn) [compound 263] | 6 to 100 nM
12 | COC(=O)c1cccc(N2N=C(C)C(C(=O)Nc3cccc(-c4ncc[nH]4)c3)C2=O)c1 (stereo not drawn) [compound 167] | 0.01 to 6 nM
13 | COc1ccc(N2N=C(C)C(C(=O)Nc3cccc(C(C)(F)F)c3)C2=O)cc1C (stereo not drawn) [compound 303] | 0.01 to 6 nM
14 | CC1=NN(c2cccc(C(=O)O)c2)C(=O)C1C(=O)Nc1cccc(C(C)(F)F)c1 (stereo not drawn) [compound 258] | 0.01 to 6 nM
15 | CC1=NN(c2cccc(-c3ncc(C)o3)c2)C(=O)C1C(=O)Nc1cccc(C(C)(F)F)c1 (stereo not drawn) [compound 229] | 0.01 to 6 nM
16 | CC1=NN(c2cccc(C(=O)OC(C)C)c2)C(=O)C1C(=O)Nc1cccc(-c2cnccn2)c1 (stereo not drawn) [compound 234] | 0.01 to 6 nM
17 | COc1ccc(N2N=C(C)C(C(=O)Nc3cccc(C(C)(F)F)c3)C2=O)cc1-c1ncco1 (stereo not drawn) [compound 301] | 0.01 to 6 nM
18 | CC1=NN(c2cccc(-c3nccn3C)c2)C(=O)C1C(=O)Nc1cccc(C(C)(F)F)c1 (stereo not drawn) [compound 289] | 0.01 to 6 nM
19 | CC1=NN(c2cccc(-c3ncco3)c2)C(=O)C1C(=O)Nc1cccc(-c2cnccn2)c1 (stereo not drawn) [compound 227] | 0.01 to 6 nM
20 | CC1=NN(c2cccc(C(F)(F)F)c2)C(=O)C1C(=O)Nc1cccc(C(C)(F)F)c1 (stereo not drawn) [compound 271] | 0.01 to 6 nM
21 | CC1=NN(c2cccc(C(=O)OC(C)C)c2)C(=O)C1C(=O)Nc1cccc(C(C)(F)F)c1 (stereo not drawn) [compound 236] | 0.01 to 6 nM
22 | COC(=O)c1cccc(N2N=C(C)C(C(=O)Nc3cccc(-c4ncco4)c3)C2=O)c1 (stereo not drawn) [compound 259] | 6 to 100 nM
23 | CCc1cscc1NC(=O)C1C(=O)N(c2ccccc2)N=C1C (stereo not drawn) [compound 290] | 100 to 1000 nM

Target: T1, ACSS2
Experiment: cell-based
Procedure: Testing the inhibitory effect of compounds on the cellular activity of ACSS2 was done by tracing the incorporation of ^13C from ^13C-acetate into fatty-acids in MDA-MB-468 cells under hypoxic conditions of 1% 02. The assay was done for 5 hours in DMEM with 5.5 mM glucose, 1 mM sodium Pyruvate, 0.65 mM Glutamine, 3.5 ug/ml Biotin, 1% dialyzed serum, 0.5 mM 13C-acetate and with different concentrations of the inhibitors. At the end of the incubation, the cells were washed with cold PBS, harvested into glass tubes and undergo saponification. The level of ^13C incorporation into Palmitate was done by LC-MS analysis and the level of inhibition was calculated with PRISM software.

Row | SMILES | IC50
24 | CCC(F)(F)c1cccc(NC(=O)C2C(=O)N(c3ccc(OC)cc3)N=C2C)c1 (stereo not drawn) [compound 330] | 0.5 to 50 nM
25 | COc1ccc(N2N=C(C)C(C(=O)Nc3cccc(C(C)(F)F)c3)C2=O)cc1OC (stereo not drawn) [compound 287] | 0.5 to 50 nM
26 | CC1=NN(c2cccc(-c3nnc(C)o3)c2)C(=O)C1C(=O)Nc1cccc(C(C)(F)F)c1 (stereo not drawn) [compound 280] | 0.5 to 50 nM
27 | COc1ccc(N2N=C(C)C(C(=O)Nc3cccc(C(C)(F)F)c3)C2=O)cc1-c1ccccc1 (stereo not drawn) [compound 313] | 0.5 to 50 nM
28 | COc1ccc(N2N=C(C)C(C(=O)Nc3cccc(-c4ccco4)c3)C2=O)cc1 (stereo not drawn) [compound 266] | 0.5 to 50 nM
29 | COc1ccc(N2N=C(C)C(C(=O)Nc3cccc(-c4cnccn4)c3)C2=O)cn1 (stereo not drawn) [compound 243] | > 100 nM
30 | COc1ccc(N2N=C(C)C(C(=O)Nc3cccc(C(C)(F)F)c3)C2=O)cc1-c1cccnc1 (stereo not drawn) [compound 320] | 0.5 to 50 nM
31 | CC1=NN(c2ccc(-c3nnn[nH]3)cc2)C(=O)C1C(=O)Nc1cccc(C(C)(F)F)c1 (stereo not drawn) [compound 297] | > 100 nM
32 | CC1=NN(c2ccc(OC(F)(F)F)c(-c3ncco3)c2)C(=O)C1C(=O)Nc1cccc(-c2ccco2)c1 (stereo not drawn) [compound 292] | 0.5 to 50 nM
33 | CC1=NN(c2cccc(C(=O)OC(C)C)c2)C(=O)C1C(=O)Nc1cccc(-c2ccco2)c1 (stereo not drawn) [compound 237] | > 100 nM
34 | COc1ccc(N2N=C(C)C(C(=O)Nc3cccc(C(C)(F)F)c3)C2=O)nc1 (stereo not drawn) [compound 304] | 0.5 to 50 nM
35 | COc1cc(N2N=C(C)C(C(=O)Nc3cccc(C(C)(F)F)c3)C2=O)ccc1OC(F)F (stereo not drawn) [compound 311] | 0.5 to 50 nM
36 | COc1ccc(N2N=C(C)C(C(=O)Nc3cccc(C(C)(F)F)c3)C2=O)cn1 (stereo not drawn) [compound 242] | 0.5 to 50 nM
37 | CC1=NN(c2ccc(C(F)(F)F)cc2)C(=O)C1C(=O)Nc1cccc(C(C)(F)F)c1 (stereo not drawn) [compound 264] | 0.5 to 50 nM
38 | CC1=NN(c2ccc(OC3CCCC3)cc2)C(=O)C1C(=O)Nc1cccc(C(C)(F)F)c1 (stereo not drawn) [compound 319] | 0.5 to 50 nM
39 | CC1=NN(c2cccc(S(=O)(=O)N(C)C)c2)C(=O)C1C(=O)Nc1cccc(-c2ccco2)c1 (stereo not drawn) [compound 263] | 0.5 to 50 nM
40 | COC(=O)c1cccc(N2N=C(C)C(C(=O)Nc3cccc(-c4ncc[nH]4)c3)C2=O)c1 (stereo not drawn) [compound 167] | > 100 nM
41 | COc1ccc(N2N=C(C)C(C(=O)Nc3cccc(C(C)(F)F)c3)C2=O)cc1C (stereo not drawn) [compound 303] | 0.5 to 50 nM
42 | CC1=NN(c2cccc(C(=O)O)c2)C(=O)C1C(=O)Nc1cccc(C(C)(F)F)c1 (stereo not drawn) [compound 258] | > 100 nM
43 | COc1ccc(N2N=C(C)C(C(=O)Nc3cccc(C(C)(F)F)c3)C2=O)cc1-c1cncnc1 (stereo not drawn) [compound 323] | 0.5 to 50 nM
44 | CC1=NN(c2cccc(-c3ncc(C)o3)c2)C(=O)C1C(=O)Nc1cccc(C(C)(F)F)c1 (stereo not drawn) [compound 229] | > 100 nM
45 | CC1=NN(c2ccc(OC(F)F)cc2)C(=O)C1C(=O)Nc1cc(C(C)(F)F)ccc1CO (stereo not drawn) [compound 306] | 0.5 to 50 nM
46 | CC1=NN(c2ccc(OC(C)(C)C)cc2)C(=O)C1C(=O)Nc1cccc(C(C)(F)F)c1 (stereo not drawn) [compound 324] | 0.5 to 50 nM
47 | CC1=NN(c2cccc(C(=O)OC(C)C)c2)C(=O)C1C(=O)Nc1cccc(-c2cnccn2)c1 (stereo not drawn) [compound 234] | > 100 nM
48 | CC1=NN(c2ccc(OC(F)F)c(-c3ccncc3)c2)C(=O)C1C(=O)Nc1cccc(C(C)(F)F)c1 (stereo not drawn) [compound 315] | 0.5 to 50 nM

Row | SMILES | IC50
49 | CC1=NN(c2ccc(OC(F)F)c(-c3ccccc3)c2)C(=O)C1C(=O)Nc1cccc(C(C)(F)F)c1 (stereo not drawn) [compound 312] | 50 to 100 nM
50 | COc1ccc(N2N=C(C)C(C(=O)Nc3cccc(C(C)(F)F)c3)C2=O)cc1-c1ncco1 (stereo not drawn) [compound 301] | 0.5 to 50 nM
51 | CCC(C)Oc1ccc(N2N=C(C)C(C(=O)Nc3cccc(C(C)(F)F)c3)C2=O)cc1 (stereo not drawn) [compound 321] | 0.5 to 50 nM
52 | CC1=NN(c2ccc(OC(F)F)c(-c3cnccn3)c2)C(=O)C1C(=O)Nc1cccc(C(C)(F)F)c1 (stereo not drawn) [compound 328] | 0.5 to 50 nM
53 | CC1=NN(c2cccc(-c3nccn3C)c2)C(=O)C1C(=O)Nc1cccc(C(C)(F)F)c1 (stereo not drawn) [compound 289] | 0.5 to 50 nM
54 | CC1=NN(c2cccc(-c3ncco3)c2)C(=O)C1C(=O)Nc1cccc(-c2cnccn2)c1 (stereo not drawn) [compound 227] | 50 to 100 nM
55 | CC1=NN(c2cccc(C(F)(F)F)c2)C(=O)C1C(=O)Nc1cccc(C(C)(F)F)c1 (stereo not drawn) [compound 271] | 0.5 to 50 nM
56 | CC1=NN(c2cccc(C(=O)OC(C)C)c2)C(=O)C1C(=O)Nc1cccc(C(C)(F)F)c1 (stereo not drawn) [compound 236] | 0.5 to 50 nM
57 | CC1=NN(c2ccc(OC3COC3)cc2)C(=O)C1C(=O)Nc1cccc(C(C)(F)F)c1 (stereo not drawn) [compound 326] | 0.5 to 50 nM
58 | COC(=O)c1cccc(N2N=C(C)C(C(=O)Nc3cccc(-c4ncco4)c3)C2=O)c1 (stereo not drawn) [compound 259] | > 100 nM
59 | CC1=NN(c2ccc(OC(C)C)cc2)C(=O)C1C(=O)Nc1cccc(C(C)(F)F)c1 (stereo not drawn) [compound 318] | 0.5 to 50 nM
60 | CC1=NN(c2ccc(OC3CCC3)cc2)C(=O)C1C(=O)Nc1cccc(C(C)(F)F)c1 (stereo not drawn) [compound 325] | 0.5 to 50 nM
61 | CC1=NN(c2ccc(OC(F)F)c(-c3cncnc3)c2)C(=O)C1C(=O)Nc1cccc(C(C)(F)F)c1 (stereo not drawn) [compound 316] | 0.5 to 50 nM
62 | COc1ccc(N2N=C(C)C(C(=O)Nc3cccc(C(C)(F)F)c3)C2=O)cc1-c1ccccn1 (stereo not drawn) [compound 331] | 0.5 to 50 nM
63 | COc1ccc(N2N=C(C)C(C(=O)Nc3cccc(C(C)(F)F)c3)C2=O)c(F)c1 (stereo not drawn) [compound 314] | 0.5 to 50 nM
64 | CC1=NN(c2ccc(OC(F)F)c(-c3cccnc3)c2)C(=O)C1C(=O)Nc1cccc(C(C)(F)F)c1 (stereo not drawn) [compound 310] | 0.5 to 50 nM
65 | CC1=NN(c2ccc(OC(F)F)cc2F)C(=O)C1C(=O)Nc1cccc(C(C)(F)F)c1 (stereo not drawn) [compound 309] | 0.5 to 50 nM
66 | COc1ccc(N2N=C(C)C(C(=O)Nc3cccc(C(C)(F)F)c3)C2=O)cc1-c1cnccn1 (stereo not drawn) [compound 332] | 0.5 to 50 nM
67 | CC1=NN(c2ccc(OC3CCCCC3)cc2)C(=O)C1C(=O)Nc1cccc(C(C)(F)F)c1 (stereo not drawn) [compound 322] | 0.5 to 50 nM
68 | CC1=NN(c2ccc(C3CC3)cc2)C(=O)C1C(=O)Nc1cccc(C(C)(F)F)c1 (stereo not drawn) [compound 308] | 0.5 to 50 nM
69 | CCCOc1ccc(N2N=C(C)C(C(=O)Nc3cccc(C(C)(F)F)c3)C2=O)cc1 (stereo not drawn) [compound 317] | 0.5 to 50 nM
70 | COc1ccc(N2N=C(C)C(C(=O)Nc3cccc(C(C)(F)F)c3)C2=O)c(C(C)(C)C)c1 (stereo not drawn) [compound 305] | > 100 nM
71 | CC1=NN(c2ccc(OC(F)F)c(-c3ccccn3)c2)C(=O)C1C(=O)Nc1cccc(C(C)(F)F)c1 (stereo not drawn) [compound 327] | 0.5 to 50 nM
72 | CC1=NN(c2ccc(OC(F)(F)F)cc2)C(=O)C1C(=O)Nc1cccc(C(C)(F)F)c1 (stereo not drawn) [compound 226] | 50 to 100 nM
